Here are results for six compounds from PMC10669129 (2023).

In assay [1] the test system is 5-HT-binding DNA aptamer (44-mer) (DNA, aptamer) CGACTGGTAGGCAGATAGGGGAAGCTGATTCGATGCGTGGGTCG
Briefly: single-frequency EIS. The note with it: Mg2+ 2 mM, 1X PBS; some cross-reactivity; microfluidic flow; concentration not given.

The test system is the same in assay [2]. Briefly: EIS and SWV; single-frequency EIS. The note with it: Mg2+ 2 mM, 1X PBS; selectivity test; highest concentration not given in text.
The test system is the same in assay [3]. Briefly: square wave voltammetry. The note with it: Mg2+ 2 mM, 1X PBS; apparent; 30 min exposure in 1X PBS; read in ferri/ferrocyanide 5 mM, pH 7.1; Hill fit.
Assay [4] shares this test system. Briefly: electrochemical impedance spectroscopy. To be noted: Mg2+ 2 mM, 1X PBS; apparent; 30 min exposure in 1X PBS; read in ferri/ferrocyanide 5 mM, pH 7.1; Hill fit.

Structures are written as SMILES.

Turning to `N[C@@H](Cc1c[nH]c2ccccc12)C(=O)O`, in assay [1], the binding result is reported as “weak”.

Consider `NC[C@H](O)c1ccc(O)c(O)c1`, for which, in assay [2], the binding entry is on record as “no”. Still for that read-out and setting: the result for `NCCc1ccc(O)c(O)c1` reads “no”. `NCCc1c[nH]c2ccc(O)cc12`: the results for the “kd,eff” value in assay [3] and in assay [4] were 306.76 ± 41.54 nM and 343.54 ± 61.03 nM, respectively. On to `O=C(O)Cc1c[nH]c2ccc(O)cc12`, for which, in assay [1], the binding entry is “weak”. Still for that read-out and setting: to `N[C@@H](Cc1c[nH]c2ccc(O)cc12)C(=O)O` belongs “weak”.
